{"source": "paper PMC3950497", "about": "(Advances in Pharmacological Sciences, 2014)", "key": {"[1]": {"conditions": "water and aqueous alcohol; cited from earlier work"}, "[2]": {"conditions": "without side effects such as α- or β-adrenergic blockade, sedative or depressant effect; cited from earlier work"}, "[3]": {"assay_type": "in vivo, rabbit", "conditions": "i.m. injection, plasma, from 15 min, extrapolated to infinity", "method": "The selected rabbits were administrated intramuscular with stephaglabrine sulfate at doses 0.1 mg/kg as it was established before. Each animal received a single dose.\nQuantitative analysis was acquired in SRM (selected reactions monitoring) mode on Agilent 6490 triple quadrupole mass spectrometer (Agilent, USA) operated in the positive mode and equipped with Jet Stream ESI ion source. Stepharine was detected in the scheduled selected reaction monitoring (SRM) with unit resolution at both first (Q1) and third (Q3) quadrupoles. The retention time point of stepharine was determined as 9.8 with isolation width of 1 minute for the scheduled SRM method application. The optimal conditions of the analysis were achieved as follows: capillary voltage was −4500 V, nozzle voltage was set at −1200 V, flow rate of drying gas (N2) was 16 L/min, flow rate of sheath gas (N2) was 8 L/min, temperature of drying gas was set at 340°C, temperature of sheath gas was set at 290°C, and nebulizer gas was operated at 20 psi. The transitions for protonated stepharine [M+H]^+ 298.4 → 161.2, 192.1, 238.2 were selected for SRM analysis. The isolation window for the fragment ions was set at 0.27 amu, the optimum fragmentor voltage was adjusted to 310 V and collision energy −19 eV. All the samples including calibration points were analyzed in three replications. 30 μL of the samples was injected and loaded on chromatographic column. Calibration was performed on standard samples solution prepared in 20% acetonitrile with concentration of stepharine from 10^−4 μg/mL to 100 μg/mL. Chromatographic separation was performed on Thermo Hypersil-Keystone ODS column (Thermo Scientific, USA) 100 × 2.1 mm, 5 μm particle size, at flow rate of 200 μL/min and with the following elution conditions: loading onto the column at maintained 20% of mobile phase B for 3 minutes, increasing the gradient to 50% of B at 5 minutes following increasing the gradient to 100% of mobile phase B at 15 minutes. The column was washed and maintained at 100% mobile phase B from 15 to 22 minutes and the composition was decreased to 20% of solvent B at 23 minute. The column was reequilibrated at starting conditions of solvent A-solvent B system ([…], v/v) for 10 minutes at flow 200 μL/min.\n0.5 mL of blood samples from each animal was collected from ear vein in the tubes with EDTA before administration and at 15, 30, 60, 90, 120, 180, 480, 720, and 1440 minutes after drug ingestion. Blood samples were immediately put on ice and centrifuged at 5000 g for 10 minutes at 4°C within one hour after blood collection. The obtained plasma was placed in sterile tube and kept at −20°C until analysis.\nPlasma proteins were precipitated with acetonitrile. For this purpose, two volumes of acetonitrile were added to 100 μL of rabbit plasma into 1.5 mL plastic tube and 30% ammonia hydroxide was added to adjust the pH to 10. After vortex-mixing for 15 minutes at ambient temperature one volume of chloroform was added three times consequently for 2 hours and incubated at 30°C under regular stirring at 900 rpm at each occasion. The first fraction of upper organic layer was collected after 2 hours of incubation, the second and the third fractions of chloroform extract were collected after additional 30 and 60 minutes of incubation, respectively. The collected fractions were combined and transferred to a new tube and dried under vacuum at 30°C. The resulting pellet was resuspended in 100 μL of 20% water-acetonitrile solution and centrifuged at 14000 rpm for 15 minutes immediately before use. The obtained solution was used for LC-MS analysis. […]"}, "pseudocholinesterase": {"test_system": "pseudocholinesterase", "parameters": "method as in ref 11 = [11]; 11 Berezhinskaya VV Nikittna SS Trutneva EA Medicinal plants pharmacology and chemotherapy Trudy Vsesoyuznogo Nauchno-Issledovatel'skogo Instituta Lekarstvenny Rastenii 1971 14 66 69", "conditions": "in vitro; cited from earlier work"}, "[4]": {"conditions": "dichloromethane and hexane as extracting solvents"}, "synaptic transmission": {"test_system": "synaptic transmission", "parameters": "method as in PMID 1652103", "conditions": "at low concentration; cited from earlier work"}, "[5]": {"test_system": "denervated extremities at traumatic injuries of sciatic nerve", "parameters": "method as in ref 4, 5 = [4]; 4 Kuznecov J Arzamascev E Malinovskaja C Pharmacological properties and toxicologic characteristics of stefaglabrin sulphate Medicines Plant Origin in Modern Therapy 1989 2 p. 71 || [5]; 5 Schelchkova II Il'inskaya TN Kuzovkov AD The alkaloids of Stephania glabra Chemistry of Natural Compounds 1965 1 4 210 212", "conditions": "rabbits, intramuscular injection 0.1 mg/kg; cited from earlier work"}, "cholinesterase": {"test_system": "cholinesterase", "parameters": "method as in ref 11 = [11]; 11 Berezhinskaya VV Nikittna SS Trutneva EA Medicinal plants pharmacology and chemotherapy Trudy Vsesoyuznogo Nauchno-Issledovatel'skogo Instituta Lekarstvenny Rastenii 1971 14 66 69", "conditions": "in vitro; cited from earlier work"}}, "note": "Where a name gives a salt, the structure may show the parent alone. Read-outs that look alike come from different tables or passages of the source."}
{"smiles": "COc1cc2c3c(c1OC)C1(C=CC(=O)C=C1)C[C@H]3NCC2", "note": "[stephaglabrine sulfate, Stephaglabrine sulfate]", "values": [{"measurement": "solubility", "setting": "[1]", "result": "soluble in water and aqueous alcohol"}, {"measurement": "antihypertensive activity", "setting": "[2]", "result": "possesses antihypertensive activity"}, {"measurement": "AUC15", "setting": "[3]; rabbit ST01, dosage 0.50 mg (0.1 mg/kg)", "result": 1661, "unit": "ng∗min/mL"}, {"measurement": "AUC15", "setting": "[3]; rabbit ST02, dosage 0.50 mg (0.1 mg/kg)", "result": 3187, "unit": "ng∗min/mL"}, {"measurement": "AUC15", "setting": "[3]; rabbit ST04, dosage 0.45 mg (0.1 mg/kg)", "result": 2516, "unit": "ng∗min/mL"}, {"measurement": "AUC15", "setting": "[3]; rabbit ST05, dosage 0.50 mg (0.1 mg/kg)", "result": 2217, "unit": "ng∗min/mL"}, {"measurement": "AUC15", "setting": "[3]; rabbit ST06, dosage 0.50 mg (0.1 mg/kg)", "result": 2769, "unit": "ng∗min/mL"}, {"measurement": "inhibition of pseudocholinesterase", "setting": "pseudocholinesterase", "result": "inhibits"}, {"measurement": "solubility in highly nonpolar solvents", "setting": "[4]", "result": "low solubility"}, {"measurement": "frequency of miniature endplate potential", "setting": "synaptic transmission", "result": "diminishes frequency of miniature endplate potential"}, {"measurement": "intensity of trophic disturbances of denervated extremities", "setting": "[5]", "result": "significantly decreases intensity of trophic disturbances"}, {"measurement": "inhibition of cholinesterase", "setting": "cholinesterase", "result": "inhibits"}]}
